Each structure is given as a SMILES string.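 These data come from cells grown in 96-well plates and exposed to compound for 48 hours at five concentrations. At the GI50, growth is halved.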 Active and inactive are the calls of the source. Rule as the data show it: active = GI50 up to about 1.1 µM and inactive = higher.

Among the test systems are COLO 205; HCT-116; HL-60; HOP-92; K562; LOX IMVI; MOLT-4; NCI-H226; NCI-H23; OVCAR-3; OVCAR-8; SK-MEL-5; SNB-19; SW-620; UACC-62; RPMI-8226; SNB-75.
Holding throughout (assay): NCI tumour cell line growth inhibition, 48 h

Turning to `O=C(CO)CC(=O)C(=O)Nc1ccccc1`, the GI50 with COLO 205, with HCT-116, in the assay on HL-60, in the assay on HOP-92, with K562 and in the assay on LOX IMVI was > 100 µM (inactive) each time. For the same compound, the GI50 with MOLT-4, in the assay on NCI-H226, in the assay on NCI-H23, in the assay with OVCAR-3, in the assay with OVCAR-8 and in the assay on SK-MEL-5 was > 100 µM (inactive) throughout. The GI50 in the assay on SNB-19, in the assay with SW-620 and in the assay with UACC-62 was > 100 µM (inactive) throughout.
Turning to `CCCCCCCCCCCCCCCC(=O)OCC1OC(n2cc(F)c(=O)[nH]c2=O)C(NC(=O)OCc2ccccc2)C(O)C1O` (configuration not stated), the GI50 in the assay with COLO 205 is 17.4 µM (inactive); in the assay with HCT-116, 16.6 µM (inactive); in the assay with HL-60, 20.2 µM (inactive); in the assay with HOP-92 it was 15.9 µM (inactive); in the assay on K562 it was 14.5 µM (inactive); in the assay with LOX IMVI, 17.1 µM (inactive). Moreover, the GI50 in the assay on MOLT-4 is 18.2 µM (inactive); with NCI-H23 it was 18.5 µM (inactive); in the assay on OVCAR-3 it was 16.1 µM (inactive); in the assay with OVCAR-8, 17.7 µM (inactive); in the assay on RPMI-8226 it was 15.7 µM (inactive); with SK-MEL-5, 18.2 µM (inactive). The GI50 with SNB-19 is 16.8 µM (inactive); in the assay on SNB-75 it was 19.8 µM (inactive); with SW-620, 26.9 µM (inactive); with UACC-62, 17.1 µM (inactive).
For `O=C1C2Cc3ccccc3CN2C(=O)N1CCN1CCCC1` (configuration not stated), the GI50 in the assay with COLO 205, in the assay with HL-60, in the assay on K562, in the assay on LOX IMVI, in the assay with MOLT-4 and in the assay on NCI-H226 was > 100 µM (inactive) each time. Further, the GI50 in the assay with NCI-H23, with OVCAR-3, with OVCAR-8, with RPMI-8226, in the assay with SK-MEL-5 and with SNB-19 was > 100 µM (inactive) throughout. Besides, the GI50 in the assay on SW-620 and in the assay on UACC-62 was > 100 µM (inactive) in each case.
Regarding `O=c1/c(=C/c2ccc3c(c2)OCO3)sc2nnc(-c3ccco3)n12`, the GI50 with COLO 205, in the assay on HCT-116, with HL-60, with K562, in the assay on LOX IMVI and in the assay on MOLT-4 was > 100 µM (inactive) each time. Further, the GI50 in the assay on NCI-H226, in the assay with NCI-H23, with OVCAR-3, with OVCAR-8, in the assay on RPMI-8226 and with SK-MEL-5 was > 100 µM (inactive) each time. Besides, the GI50 was > 100 µM (inactive) in the assay with SNB-19, 28.2 µM (inactive) in the assay on SNB-75, > 100 µM (inactive) in the assay with SW-620 and > 100 µM (inactive) with UACC-62.
With `CSc1nc(C)cc(=O)n1C1OC(COC(C)=O)C(OC(C)=O)C(OC(C)=O)C1OC(C)=O` (configuration not stated), the GI50 in the assay with COLO 205, in the assay on HCT-116, in the assay on HL-60, in the assay on K562, in the assay with LOX IMVI and in the assay on MOLT-4 was > 100 µM (inactive) each time. Further, the GI50 in the assay with NCI-H226, in the assay with NCI-H23, in the assay with OVCAR-3, with OVCAR-8, in the assay on RPMI-8226 and with SK-MEL-5 was > 100 µM (inactive) each time. In addition, the GI50 with SNB-19 was > 100 µM (inactive); in the assay with SNB-75 it was 61.5 µM (inactive); in the assay with SW-620, > 100 µM (inactive); in the assay on UACC-62, > 100 µM (inactive).
Turning to `C=CCCC(O)c1cc(C)c(O)c(C)c1` (configuration not stated), the GI50 with COLO 205, in the assay with HL-60, with K562, in the assay on LOX IMVI, in the assay with MOLT-4 and with NCI-H226 was > 100 µM (inactive) each time. In addition, the GI50 in the assay on NCI-H23, in the assay on OVCAR-3, in the assay on OVCAR-8, in the assay with RPMI-8226, with SK-MEL-5 and in the assay on SNB-19 was > 100 µM (inactive) throughout. Also, the GI50 is 60.1 µM (inactive) in the assay on SNB-75, > 100 µM (inactive) in the assay with SW-620 and > 100 µM (inactive) in the assay with UACC-62.
For `COc1ccc(C[P+]2(c3ccccc3)CCCCC2)cc1.O=[N+]([O-])c1ccc(C[P+]2(c3ccccc3)CCCCC2)cc1.[O-][Cl+3]([O-])([O-])[O-].[O-][Cl+3]([O-])([O-])[O-]`, the GI50 was 52.5 µM (inactive) in the assay on COLO 205; 20.6 µM (inactive) with HL-60; 56.1 µM (inactive) with K562; 67.5 µM (inactive) in the assay on LOX IMVI; 63.8 µM (inactive) in the assay on MOLT-4; 66.8 µM (inactive) in the assay on NCI-H23. The GI50 with OVCAR-3 was 41 µM (inactive); in the assay with OVCAR-8 it was > 100 µM (inactive); in the assay with RPMI-8226, 24.9 µM (inactive); with SK-MEL-5, 23.7 µM (inactive); in the assay with SNB-19 it was 89.7 µM (inactive); in the assay with SNB-75, > 100 µM (inactive). In addition, the GI50 was 94.6 µM (inactive) in the assay with SW-620 and 39.2 µM (inactive) in the assay with UACC-62.
Turning to `Clc1ccc2c(c1)C1C(CO2)C(c2ccccc2)=NN1c1ccccc1` (configuration not stated), the GI50 in the assay with COLO 205 is 71.3 µM (inactive); with HCT-116, 16.1 µM (inactive); in the assay with HL-60, 17.3 µM (inactive); in the assay on HOP-92 it was 18.6 µM (inactive); in the assay on K562, 26.2 µM (inactive); in the assay with LOX IMVI, > 10 µM (inactive). Moreover, the GI50 was 22 µM (inactive) in the assay on MOLT-4; 33.7 µM (inactive) in the assay with NCI-H23; 23 µM (inactive) in the assay on OVCAR-3; 28.6 µM (inactive) with OVCAR-8; 12.4 µM (inactive) with RPMI-8226; 34.5 µM (inactive) in the assay on SNB-19. In addition, the GI50 with SNB-75 was 20.1 µM (inactive); in the assay on SW-620 it was 39.7 µM (inactive).
For `O=C(CCC(=O)Nc1ccc(Cl)c(Cl)c1)CC(=O)c1ccc(F)cc1`, the GI50 in the assay with COLO 205, in the assay with HCT-116, with HL-60, with HOP-92, in the assay with K562 and in the assay on LOX IMVI was > 100 µM (inactive) in each case. Besides, the GI50 with MOLT-4, in the assay on NCI-H226, in the assay on NCI-H23, in the assay on OVCAR-3, in the assay on OVCAR-8 and with SK-MEL-5 was > 100 µM (inactive) throughout. Also, the GI50 is > 100 µM (inactive) in the assay on SNB-19, > 100 µM (inactive) in the assay with SW-620 and 89.3 µM (inactive) in the assay with UACC-62.
With `O=C1CCC(=O)N1Cc1ccccc1/N=[N+](\[O-])c1ccccc1CN1C(=O)CCC1=O`, the GI50 in the assay on COLO 205, with HCT-116, in the assay on HL-60, in the assay on K562, in the assay with LOX IMVI and with MOLT-4 was > 100 µM (inactive) in each case. For the same compound, the GI50 in the assay on NCI-H23, in the assay on OVCAR-3, in the assay with OVCAR-8, in the assay with RPMI-8226, with SK-MEL-5 and with SNB-19 was > 100 µM (inactive) in each case. In addition, the GI50 in the assay on SNB-75 is 10.2 µM (inactive); with SW-620, > 100 µM (inactive); with UACC-62, > 100 µM (inactive).
With `COc1ccc(/C=C/CO)cc1OC`, the GI50 was > 100 µM (inactive) in the assay with COLO 205; 56.8 µM (inactive) in the assay on HOP-92; > 100 µM (inactive) with K562; > 100 µM (inactive) in the assay with MOLT-4; 49.9 µM (inactive) in the assay with NCI-H226; > 100 µM (inactive) in the assay on NCI-H23. Further, the GI50 with OVCAR-3, in the assay on OVCAR-8, in the assay with RPMI-8226, in the assay with SK-MEL-5, with SNB-19 and in the assay with SNB-75 was > 100 µM (inactive) throughout. Besides, the GI50 in the assay with SW-620 and with UACC-62 was > 100 µM (inactive) in each case.
Regarding `C=C1C2C[C@@H]3OC4CC5O[C@]6(CC5OC4C(C)C3OC(=O)CC3CC[C@@H]4OC5C7OC8C[C@](CCC9CC(=C)[C@H](CCC(C[C@H]1C)O2)O9)(OC7C4O3)O[C@@H]85)C[C@@H]1O[C@@]2(CC(C)[C@@H]3OC(CC(=O)CCO)C(O)C[C@@H]3O2)CC(C)[C@@H]1O6` (some centres not stated), the GI50 in the assay with COLO 205, in the assay on HCT-116, with HOP-92, in the assay on K562, in the assay on LOX IMVI and in the assay on MOLT-4 was < 0.001 µM (active) in each case. In addition, the GI50 in the assay on NCI-H226, in the assay with NCI-H23, with OVCAR-3, in the assay with OVCAR-8, with SK-MEL-5 and with SNB-19 was < 0.001 µM (active) throughout. Also, the GI50 in the assay on SW-620 and with UACC-62 was < 0.001 µM (active) in each case.
On to `NCCOCCOCC(=O)O`, for which the GI50 in the assay with HCT-116, in the assay on HOP-92, in the assay with K562, with MOLT-4, with NCI-H226 and in the assay on NCI-H23 was > 100 µM (inactive) in each case. Further, the GI50 in the assay on OVCAR-3, in the assay with OVCAR-8, with RPMI-8226, with SK-MEL-5, in the assay on SNB-19 and in the assay on SNB-75 was > 100 µM (inactive) in each case. For the same compound, the GI50 with SW-620 and in the assay on UACC-62 was > 100 µM (inactive) each time.

(Values after ChEMBL document CHEMBL1201862, “PubChem BioAssay data set” (2004).)
